Key:
[1] = test system: antibody-forming cells in mouse spleen (sheep erythrocytes as antigen); assay: Antibody-forming cell (AFC) count in mouse spleen, local hemolysis reaction (humoral immune response); assay type: in vivo; conditions: for AFC stimulation degree: C57B1/6; for AFC count per 10^6 nucleated spleen cells: C57B1/6 males 20-22 g; for AFC stimulating effect: 50.0 mg/kg, low responsive line mice
[2] = test system: hemagglutinin titers for sheep erythrocytes in mouse serum; assay: Hemagglutinin (HA) titer for sheep erythrocytes in mouse serum; assay type: in vivo
[3] = test system: delayed skin reaction (DSR) to sheep erythrocytes; assay: Delayed skin reaction (DSR); assay type: in vivo, mouse; conditions: inosiplex 0.5, 5.0 and 50.0 mg/kg; mice of two lines; listed as In
Procedure: Experimental animals were intraperitoneally administered doses of 10.0 and 100.0 mg/kg in 0.1 ml in parallel to antigen administration; similar doses were given per os for 5 days before antigen administration.
(§1) In was dissolved in physiological solution and administered intraperitonerally at single doses together with antigen (sheep erytrcytes). Physiological solution was used as a control.
(§2) 3. DSR deermination using intravenoous immunization of mice with sheep erythrocytes administered at a dose of 2×10^5 cells. A resolution dose (1×10^8 cells in 0.04 ml of physiological solution) was injected in a hind footpad on the 5th day following immunization. Local inflammatory reaction was accounted for 24 hours later by the difference of mass between experimental (Re) and control (Rc) footpads. Reaction index (RI) was calculated for each mouse using the following formula: [formula] 4. GVHR determination. GVHR was induced by subcutaneous administration of 2×10^6 lymph node cells of […] (CBA) into right hind footpads of line F1 (CBA×C57B1/6) mice. Syngeneic lymphocytes were administered into left footpads. Cell count was determined in 5 ml of homogenate of left (control) and right (experiment) lymph nodes.

[4] = test system: graft-versus-host reaction (GVHR); assay: Graft-versus-host reaction (GVHR); assay type: in vivo, mouse; conditions: inosiplex 50.0 mg/kg
Procedure: as §1, §2

peritoneal macrophages = assay: Phagocytic activity of peritoneal macrophages (opsonized sheep erythrocytes); assay type: in vivo, mouse; conditions: for Stimulation degree (phagocytosis completion index increase): F1 mice
Procedure: 5. Estimation of phagocytic activity of peritoneal macrophages in mice, using JgG-opsonized sheep erythrocytes as the phagocytosis target /10/. Macrophages were attracted by 4-percent hydrolyzed starch solution. On the 3rd or 4th day, 0.5 ml of 5-percent sheep erythrocyte suspension were administered intraperitoneally. Following 60 minutes, exudate was removed. Non phagocytic sheep erythrocytes were subjected to lysis. Cell suspension was washed out. The preparation stained per Romanovsky-Gimze was determined for phagocyting cell percentage. To determine phagocytic index (PI1), the number of sheep erythroccytes captured was calculated spectrophotometrically /11/ by hemoglobin concentration using a calibration curve. Phagocytic index (P12) was determined again following 3 hours of incubation at 37° C. Phagocytosis completion index (PCI) was calculatd using the following formula: [formula] […] Then, for 15 minutes blood was taken from orbital sinus (0.020 ml) every 3 minutes and introduced into 1 ml of 3-percent acetic acid. Blood taking completed, animals were killed and body weight, liver and spleen weight were measured. Optical density of hemolyzed blood determined spectrophometrically at 610 nm wavelenght, and the f (D) t curve was plotted. Points lg (0) (zero time) and lg(10) (on the curve) were located. Phagocytosys constant (K) was calculated using the following formula: [formula] and then true phagocytosis index (α) was calculated using the following formula: [formula] 7. Complement activity determination using the titration technique employing rabbit erythrocytes treated with hyperimmune antiserum of guinea pig /12/ for direct activation route and employing rabbit erythrocytes treated with potassium iodide solution /13/ for alternative activation route. Activity was expressed in units 50-percent lysis per ml of serum (CH50).
The effect of In given at doses of 0.5, 5.0 and 50.0 mg/kg on phagocytosis index was studied in hybrid line F1 (CBA×C57B1/6) mice, with he drug administered intraperitonreallly 30 minutes before injection of the phagocytosis target, i.e. sheep erythrocytes.

[5] = test system: ink clearance, phagocytic activity in vivo; assay: Ink clearance (phagocytosis in vivo); parameters: species or system mouse; conditions: In intraperitoneally 0.5, 5.0 and 50.0 mg/kg
Procedure: 5. Estimation of phagocytic activity of peritoneal macrophages in mice, using JgG-opsonized sheep erythrocytes as the phagocytosis target /10/. Macrophages were attracted by 4-percent hydrolyzed starch solution. On the 3rd or 4th day, 0.5 ml of 5-percent sheep erythrocyte suspension were administered intraperitoneally. Following 60 minutes, exudate was removed. Non phagocytic sheep erythrocytes were subjected to lysis. Cell suspension was washed out. The preparation stained per Romanovsky-Gimze was determined for phagocyting cell percentage. To determine phagocytic index (PI1), the number of sheep erythroccytes captured was calculated spectrophotometrically /11/ by hemoglobin concentration using a calibration curve. Phagocytic index (P12) was determined again following 3 hours of incubation at 37° C. Phagocytosis completion index (PCI) was calculatd using the following formula: [formula] […] Blood taking completed, animals were killed and body weight, liver and spleen weight were measured. Optical density of hemolyzed blood determined spectrophometrically at 610 nm wavelenght, and the f (D) t curve was plotted. […] Phagocytosys constant (K) was calculated using the following formula: [formula] and then true phagocytosis index (α) was calculated using the following formula: [formula] […]

[6] = third dose column (printed 5.0 mg/kg), 2 × 10^7 sheep erythrocytes

**Q.** Which results are given for `CC(=O)Nc1ccc(C(=O)O)cc1.CC(=O)Nc1ccc(C(=O)O)cc1.CC(=O)Nc1ccc(C(=O)O)cc1.CC(O)CN(C)C.CC(O)CN(C)C.CC(O)CN(C)C.O=c1[nH]cnc2c1ncn2[C@@H]1O[C@H](CO)[C@@H](O)[C@H]1O` [Inosiplex]?
**A.** AFC stimulation degree ([1]; 0.5 mg/kg, 10^8 sheep erythrocytes (optimum)): 90%; AFC count per 10^6 nucleated spleen cells ([1]; 0.5 mg/kg, 2 × 10^7 sheep erythrocytes): 52(63'44); AFC count per 10^6 nucleated spleen cells ([1]; 0.5 mg/kg, 10^8 sheep erythrocytes, p < 0.05): 158(186'134); AFC stimulation degree ([1]; 5.0 mg/kg, 2 × 10^7 sheep erythrocytes (suboptimum)): 38%; AFC stimulation degree ([1]; 5.0 mg/kg, 10^8 sheep erythrocytes (optimum)): 82%; AFC count per 10^6 nucleated spleen cells ([1]; 5.0 mg/kg, 2 × 10^7 sheep erythrocytes): 117(149'98); AFC count per 10^6 nucleated spleen cells ([1]; 5.0 mg/kg, 10^8 sheep erythrocytes, p < 0.05): 151(169'134); AFC stimulating effect ([1]; optimum immunisation): 139%; AFC stimulating effect ([1]; suboptimum immunisation): 32%; stimulation of humoral immune response ([1]; 5.0 and 50.0 mg/kg, animals low responsive to antigen): 1.3-1.8 fold; antibody-forming cells in the spleen (in words) ([1]; common to inosplex and Rp): Stimulation of forming antibody-forming cells in the spleen; humoral immune reaction (in words) ([1]; strong-replied animals, optimal dose of antigen): Suppress of humoral immune reaction; AFC stimulation degree [1, 6]: 32%; AFC stimulation degree ([1]; third dose column (printed 5.0 mg/kg), 10^8 sheep erythrocytes): 139%; AFC count per 10^6 nucleated spleen cells [1, 6]: 112(141'89); AFC count per 10^6 nucleated spleen cells ([1]; third dose column (printed 5.0 mg/kg), 10^8 sheep erythrocytes, p < 0.01): 199(245'162); humoral immune reaction (in words) ([1]; weak-replied animals, and strong-replied mice with suboptimum dose of antigen): Stimulation of humoral immune reaction; HA titer, 14th day after immunisation ([2]; 250.0 mg/kg, CBA males 20-22 g, n = 8, suboptimum sheep erythrocyte dose, P< 0.02): 8.5 log2; stimulation of hemagglutinin production (fold) ([2]; 250.0 mg/kg, line CBA): as much as two times; stimulation of hemagglutinin production (log2 of hemagglutinin titer) ([2]; 250.0 mg/kg, line CBA): 1 log2 of hemagglutinin titer; effect on hemagglutinin titer (in words) ([2]; 0.5, 5.0 and 25.0 mg/kg, line CBA, 7th and 14th day, suboptimum immunisation): no stimulating effect; DSR intensity (in words) [3]: no changes in the reaction intensity; GVHR (in words) [4]: slight inhibitory effect; Stimulation degree (phagocytosis completion index increase) (peritoneal macrophages; 5.0 mg/kg, intraperitoneal): 39%; Stimulation degree (phagocytosis completion index increase) (peritoneal macrophages; 50.0 mg/kg, intraperitoneal): 76%; phagocytosis and digesting ability of macrophages (in words) (peritoneal macrophages; common to inosplex and Rp): Stimulation of phagocytosis and digesting ability of macrophages; phagocytosis index (in words) (peritoneal macrophages; inosiplex 0.5 mg/kg, F1, intraperitoneal): no stimulation effect; stimulation of phagocytosis completion (peritoneal macrophages; intraperitoneal 5.0 and 50.0 mg/kg): 1.4-1.7 times; blood clearence rate (in words) [5]: no effect on blood clearence rate; capturing intensity of inert ink particles (in words) [5]: no changes in capturing intensity of inert ink particles
